Test system: Plasmodium berghei
Assay: Luciferase/luciferin-expressing antifolate-resistant parasites were used to infect a culture of HepG2 cells that were pre-incubated with compounds. Infected hepatocytes emit light due to the luciferase reaction. Assay results are presented as the percent inhibition of light emission compared to control. […]
Assay type: functional
Details: sporozoite; for IC90: read-out: LUCIFERASE INFECTION ASSAY - IC90
[1] = read-out: LUCIFERASE INFECTION ASSAY - IC50

With `Cc1ccc(C(=O)C(C)Oc2ccc(NC(=O)c3cccs3)cc2)cc1` (stereo not drawn) the IC50 (PBLUC_HILL_SLOPE 1.89, PBLUC_R_SQUARED 0.795, read-out: LUCIFERASE INFECTION ASSAY - IC50) was 0.461 µM and the IC90 was 1.47 µM.
For `COc1cc(-c2nc3ccc(NC(=O)c4ccco4)cn3n2)cc(OC)c1OC`, the IC50 (PBLUC_HILL_SLOPE 0.261, PBLUC_R_SQUARED 0.0451, read-out: LUCIFERASE INFECTION ASSAY - IC50) was > 10 µM and the IC90 was > 10 µM.
With `Oc1ccc(Br)cc1/C=N/c1cc(C(F)(F)F)ccc1NCCc1ccccc1` the IC50 (PBLUC_HILL_SLOPE 12.2, PBLUC_R_SQUARED 0.511, read-out: LUCIFERASE INFECTION ASSAY - IC50) was > 7.12 µM and the IC90 was > 7.12 µM.
For `CCOc1ccc(NC(=S)N/N=C2/C(=O)c3cccc4cccc2c34)cc1`, the IC50 (FFLUC_HILL_SLOPE 16.1, FFLUC_R_SQUARED 0.465, PBLUC_HILL_SLOPE 2.76, PBLUC_R_SQUARED 0.814, read-out: LUCIFERASE INFECTION ASSAY - IC50) was 4.61 µM and the IC90 was > 10 µM.
For `O=C1C=CC(=O)N1Cc1ccc2c(c1)OCO2`, the IC50 (PBLUC_HILL_SLOPE 13.6, PBLUC_R_SQUARED 0.619, read-out: LUCIFERASE INFECTION ASSAY - IC50) was 11.4 µM and the IC90 was 13.4 µM.
In the case of `CNc1nc2cnc(Nc3ccc(Oc4ccccc4)cc3)cc2n1C`, the IC50 [1] is reported as > 10 µM and the IC90 is reported as > 10 µM.
With `CCC/C(=N\n1c(-c2ccc(-c3ccccc3)cc2)cs/c1=N/c1c(C)n(C)n(-c2ccccc2)c1=O)c1ccccc1` the IC50 [1] was > 10 µM and the IC90 was > 10 µM.
Work on `COc1ccc(-c2cnc3cnc(-c4ccc(CNc5ccccc5)cc4)cn23)cn1` yielded an IC50 [1] of 2.72 µM and an IC90 of 8.05 µM.
With `CCOc1ccc(C(=O)c2c(-c3ccccc3)c3c4n(c(COc5cc(C)ccc5C(C)C)nn24)CCCC3)cc1` the IC50 [1] was 8.64 µM and the IC90 was > 10 µM.
`O=C(Nc1ccc(-n2ccc(C(F)(F)F)n2)cc1)c1cccs1` was tested, and the IC50 (PBLUC_HILL_SLOPE 1.9, PBLUC_R_SQUARED 0.777, read-out: LUCIFERASE INFECTION ASSAY - IC50) was 1.14 µM and the IC90 was 3.61 µM.
With `Cn1c(Cn2nnc(-c3cccc(F)c3)n2)nc2ccccc2c1=O` the IC50 [1] was > 10 µM and the IC90 was > 10 µM.
With `COc1ccc(CCNc2nc(CN3CCCC3)nc3sc(C)c(C)c23)cc1` the IC50 (FFLUC_HILL_SLOPE 4.5, FFLUC_R_SQUARED 0.668, PBLUC_HILL_SLOPE 16.9, PBLUC_R_SQUARED 0.0613, read-out: LUCIFERASE INFECTION ASSAY - IC50) was 9.78 µM and the IC90 was > 10 µM.
In the case of `CCN(CC)CCSc1nc(-c2ccc(C)cc2)nc2c1COC(C)(C)C2`, the IC50 (PBLUC_HILL_SLOPE 1.36, PBLUC_R_SQUARED 0.0849, read-out: LUCIFERASE INFECTION ASSAY - IC50) is reported as > 8.56 µM and the IC90 is reported as > 8.56 µM.
For `CCCCNC(=O)c1c(NCCC)sc(C(=O)c2ccc(OC)cc2)c1N`, the IC50 (PBLUC_HILL_SLOPE 4.7, PBLUC_R_SQUARED 0.148, read-out: LUCIFERASE INFECTION ASSAY - IC50) was 8.99 µM and the IC90 was > 10 µM.
In the case of `Cc1c(-c2ccccc2)sc2[nH]c(CC(N)=O)nc(=O)c12`, the IC50 (HEPG2TOX_HILL_SLOPE 1.61, HEPG2TOX_R_SQUARED 0.893, PBLUC_HILL_SLOPE 16.8, PBLUC_R_SQUARED 0.567, read-out: LUCIFERASE INFECTION ASSAY - IC50) is reported as 1.39 µM and the IC90 is reported as 1.59 µM.
For `Cc1cc(-c2cn3c(-c4cccc(O)c4)cnc3cn2)cc(C)c1O`, the IC50 (FFLUC_HILL_SLOPE 0.138, FFLUC_R_SQUARED 0.042, HEPG2TOX_HILL_SLOPE 1.55, HEPG2TOX_R_SQUARED 0.983, PBLUC_HILL_SLOPE 3.3, PBLUC_R_SQUARED 0.553, read-out: LUCIFERASE INFECTION ASSAY - IC50) was 6.94 µM and the IC90 was > 9.96 µM.
`O=C(Cc1cn2ccsc2n1)NNC(=O)c1cc(Cl)ccc1O` showed an IC50 (HEPG2TOX_HILL_SLOPE 0.838, HEPG2TOX_R_SQUARED 0.788, PBLUC_HILL_SLOPE 20.5, PBLUC_R_SQUARED 0.865, read-out: LUCIFERASE INFECTION ASSAY - IC50) of 0.372 µM and an IC90 of 0.414 µM.
For `CC(Sc1nnc(-c2ccc(C(C)(C)C)cc2)o1)C(=O)NCc1ccccc1Cl` (stereo not drawn), the IC50 (PBLUC_HILL_SLOPE 1.93, PBLUC_R_SQUARED 0.876, read-out: LUCIFERASE INFECTION ASSAY - IC50) was 4.14 µM and the IC90 was > 10 µM.
With `Cc1c2cnn(C)c(=O)c2c(C)n1Cc1cccs1` the IC50 (PBLUC_HILL_SLOPE 0.733, PBLUC_R_SQUARED 0.45, read-out: LUCIFERASE INFECTION ASSAY - IC50) was 4.19 µM and the IC90 was > 12.1 µM.
Work on `COc1ccc(-c2cc3ncnc(NCc4ccc(S(=O)(=O)N5CCCC5)s4)c3s2)cc1` yielded an IC50 [1] of 3.52 µM and an IC90 of 4.46 µM.
In the case of `CS(=O)(=O)Nc1cccc(-c2cnc3sc(NCCOc4ccccc4)nn23)c1`, the IC50 (PBLUC_HILL_SLOPE 4.91, PBLUC_R_SQUARED 0.558, read-out: LUCIFERASE INFECTION ASSAY - IC50) is reported as 5.02 µM and the IC90 is reported as > 7.68 µM.
For `CCCc1cc(NCc2cccnc2)n2ncc(-c3ccccc3)c2n1`, the IC50 (PBLUC_HILL_SLOPE 2.86, PBLUC_R_SQUARED 0.143, read-out: LUCIFERASE INFECTION ASSAY - IC50) was 6.97 µM and the IC90 was > 9.61 µM.
For `O=C(COC(=O)CNS(=O)(=O)/C=C/c1ccccc1)NC1CCCCC1`, the IC50 [1] was > 10 µM and the IC90 was > 10 µM.
In the case of `CCCCCc1ccc(-c2nnc(SCC(C)=O)[nH]2)cc1`, the IC50 [1] is reported as > 10.9 µM and the IC90 is reported as > 10.9 µM.
`Oc1c(C(Nc2ncccn2)c2ccc(F)cc2)ccc2cccnc12` (stereo not drawn) gave an IC50 (FFLUC_HILL_SLOPE 12.3, FFLUC_R_SQUARED 0.0325, HEPG2TOX_HILL_SLOPE 1.16, HEPG2TOX_R_SQUARED 0.848, PBLUC_HILL_SLOPE 14, PBLUC_R_SQUARED 0.306, read-out: LUCIFERASE INFECTION ASSAY - IC50) of 3.03 µM and an IC90 of 3.55 µM.
In the case of `CCC1CCc2sc(C(=O)NN)cc2C1` (stereo not drawn), the IC50 [1] is reported as > 10 µM and the IC90 is reported as > 10 µM.
With `CC(C)c1nc(NCC2CCCO2)c(C#N)c2c1CCCC2` (stereo not drawn) the IC50 (PBLUC_HILL_SLOPE 0.297, PBLUC_R_SQUARED 0.0572, read-out: LUCIFERASE INFECTION ASSAY - IC50) was > 11 µM and the IC90 was > 11 µM.
For `CC(C)c1cccc(Nc2cc3c(cn2)nc(Nc2ccccc2)n3C)c1`, the IC50 (PBLUC_HILL_SLOPE 1.87, PBLUC_R_SQUARED 0.0991, read-out: LUCIFERASE INFECTION ASSAY - IC50) was > 10 µM and the IC90 was > 10 µM.
For `CC(C)(C)NC(=S)Nc1cc(C(F)(F)F)c(Cl)cc1Cl`, the IC50 [1] was > 9.56 µM and the IC90 was > 9.56 µM.
In the case of `Cc1nc(-c2ccsc2)sc1C(=O)Nc1nc(-c2ccc(NS(C)(=O)=O)cc2)cs1`, the IC50 [1] is reported as 5.84 µM and the IC90 is reported as 8.82 µM.
`O=C1CCC(c2ccccc2)C(=O)/C1=N\Nc1ccccc1Cl` (stereo not drawn) was tested, and the IC50 [1] was > 10.1 µM and the IC90 was > 10.1 µM.
In the case of `O=c1nc(SCc2ccc(Cl)cc2Cl)[nH]c2ccccc12`, the IC50 [1] is reported as > 9.79 µM and the IC90 is reported as > 9.79 µM.
With `CNC(=O)C(Sc1nnc(Nc2ccc(C(C)C)cc2)s1)C(C)=O` (stereo not drawn) the IC50 [1] was > 10 µM and the IC90 was > 10 µM.
With `O=C1Nc2ccccc2/C1=C/c1cccn1-c1ccc(C(F)(F)F)cc1` the IC50 (PBLUC_HILL_SLOPE 2.37, PBLUC_R_SQUARED 0.071, read-out: LUCIFERASE INFECTION ASSAY - IC50) was 5.82 µM and the IC90 was > 9.31 µM.
With `COc1ccc(Nc2n[nH]c(NC(=O)Cc3c(Cl)cccc3Cl)c2C#N)cc1` the IC50 (FFLUC_HILL_SLOPE 14.5, FFLUC_R_SQUARED 0.631, HEPG2TOX_HILL_SLOPE 1.37, HEPG2TOX_R_SQUARED 0.939, PBLUC_HILL_SLOPE 1.1, PBLUC_R_SQUARED 0.834, read-out: LUCIFERASE INFECTION ASSAY - IC50) was 0.069 µM and the IC90 was 0.506 µM.
`CCc1cccc2c(C(=O)CN3CCC(C(=O)N4CCCCCC4)CC3)c[nH]c12` was tested, and the IC50 (PBLUC_HILL_SLOPE 1.3, PBLUC_R_SQUARED 0.149, read-out: LUCIFERASE INFECTION ASSAY - IC50) was > 10 µM and the IC90 was > 10 µM.
In the case of `COc1cc(NC(=O)COC(=O)c2c3c(nc4ccccc24)CCC(C(C)(C)C)C3)c(C)cc1[N+](=O)[O-]` (stereo not drawn), the IC50 (HEPG2TOX_HILL_SLOPE 0.52, HEPG2TOX_R_SQUARED 0.623, PBLUC_HILL_SLOPE 14.9, PBLUC_R_SQUARED 0.282, read-out: LUCIFERASE INFECTION ASSAY - IC50) is reported as > 10 µM and the IC90 is reported as > 10 µM.
With `COc1ccc(C(C)=O)cc1COc1cccc(C(=O)NCc2ccccc2)c1` the IC50 (HEPG2TOX_HILL_SLOPE 15.6, HEPG2TOX_R_SQUARED 0.727, PBLUC_HILL_SLOPE 15.6, PBLUC_R_SQUARED 0.0647, read-out: LUCIFERASE INFECTION ASSAY - IC50) was 8.12 µM and the IC90 was 9.35 µM.
`Cc1ccc(-c2nc(C(=O)NC3CC3)cc3c2[nH]c2ccccc23)cc1` was tested, and the IC50 (HEPG2TOX_HILL_SLOPE 1.45, HEPG2TOX_R_SQUARED 0.961, PBLUC_HILL_SLOPE 3.11, PBLUC_R_SQUARED 0.33, read-out: LUCIFERASE INFECTION ASSAY - IC50) was 3.64 µM and the IC90 was 7.38 µM.
With `Cc1cc2ccccn2c1C(=O)c1cc2c(C)nn(-c3ccccc3)c2s1` the IC50 [1] was > 10 µM and the IC90 was > 10 µM.
Compound `O=C(OCc1ncc(-c2ccccc2)o1)c1cc([N+](=O)[O-])ccc1N1CCOCC1` has an IC50 (HEPG2TOX_HILL_SLOPE 0.712, HEPG2TOX_R_SQUARED 0.947, PBLUC_HILL_SLOPE 1.1, PBLUC_R_SQUARED 0.629, read-out: LUCIFERASE INFECTION ASSAY - IC50) of 0.465 µM and an IC90 of 3.4 µM.
With `N#CCCn1cc(/C=C(\C#N)c2nc3ccccc3[nH]2)c(-c2ccccc2)n1` the IC50 [1] was > 10 µM and the IC90 was > 10 µM.
`CC(=O)NC1=C(N(C)C2CCS(=O)(=O)C2)C(=O)c2ccccc2C1=O` (stereo not drawn) was tested, and the IC50 (FFLUC_HILL_SLOPE 10.5, FFLUC_R_SQUARED 0.371, PBLUC_HILL_SLOPE 1.29, PBLUC_R_SQUARED 0.482, read-out: LUCIFERASE INFECTION ASSAY - IC50) was 5.96 µM and the IC90 was > 10 µM.
For `COc1ccccc1NC(=O)/C=c1\s/c(=C\c2ccc(-c3ccccc3F)o2)c(=O)n1C`, the IC50 (HEPG2TOX_HILL_SLOPE 2.21, HEPG2TOX_R_SQUARED 0.937, PBLUC_HILL_SLOPE 21.9, PBLUC_R_SQUARED 0.468, read-out: LUCIFERASE INFECTION ASSAY - IC50) was 3.39 µM and the IC90 was 3.75 µM.
